Data: patent US4063022A, “Antisecretory 2-imidazolidinones” (Morton-Norwich Products, Inc., priority 1976, dated 1977)

Tested on: gastric acid secretion
Test: modified standard pylorus-ligated secretory testing procedure in the rat
Format: in vivo, Sprague-Dawley rats
Conditions: 300 mg/kg p.o. 1 hr prior to pylorus ligation, 4 hrs after ligation; for % of Control Vol. of Gastric Secretion: control 0.5% Methocel; for % of Control Gastric Acid Output: titration to pH 7, control 0.5% Methocel
Procedure: Such effect is evidenced using a modified standard pyloruslighted secretory testing procedure in the rat. Sprague-Dawley rats, weighing […] and previously fasted for 24 hrs, were used. All compounds were given perorally as suspensions in 0.5% Methocel 1 hr prior to pylorus ligation. Under light ether anesthesia, the rat stomach was ligated at the pylorus region. Four hrs after ligation the conscious rat was sacrificed by a chloroform overdose. The stomach was carefully excised and its content drained into a centrifuge tube. Samples were centrifuged to separate secretions from debris. Gastric fluid volume reading and determination of sample contamination, based on debris and sample color, was made. Titration was performed on a sample aliquot of 1 ml diluted to a volume of 5 ml using distilled water. The titrant used was 0.1N NaOH. Total gastric acid output in the stomach was determined by titration to ph 7. A dose of 300 mg/kg p.o. of a compound was administered to a group of rats and its effect on the volume of gastric secretion and acid output compared to a control group receiving 0.5% Methocel p.o. The activity of each compound based on the degree of inhibition of gastric acid output is set forth in Table I.

| Compound | % of Control Vol. of Gastric Secretion | % of Control Gastric Acid Output |
| --- | --- | --- |
| CN1CCN(Cc2ccc(Cl)c(Cl)c2)C1=O [I-B, 1-(3,4-Dichlorobenzyl)-3-methyl-2-imidazolidinone] | 39.2 % of Control | 8.9 % of Control |
| O=C1NCCN1Cc1ccc(Cl)c(C(F)(F)F)c1 [Example 11-C, 1-(4-Chloro-3-trifluoromethylbenzyl)-2-imidazolidinone] | 23.0 % of Control | 16.8 % of Control |
